Reference: patent US20110172217A1, “RING-FUSED MORPHOLINE DERIVATIVE HAVING PI3K-INHIBITING ACTIVITY” (Shionogi & Co., Ltd., priority 2008, published 2011)

How the values were obtained:
PI-3 kinase γ = PI-3 kinase γ (Homo sapiens, UniProt P48736); experiment: PI3Kγ inhibitory activity, PI3-kinase HTRF assay (inhibition ratio); format: biochemical; conditions: 0.5 h, compound at 50 μmol/L
In short: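 Human PI3Kγ was preincubated 10 min with compound and PIP2 substrate, then reacted 30 min at room temperature with ATP (40 μmol/L in the added solution); EDTA/biotin-PIP3 quenched. HTRF 665/620 nm ratio read after 18 h, normalized to no-compound (100%) and no-enzyme (0%) controls, gave % inhibition at 50 or 10 μmol/L compound.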

[1] = tested on: Salmonella typhimurium TA98 line, TA100 line; experiment: Fat Test (mutagenicity in Salmonella typhimurium); format: cell-based; design: key: When the mutagenicity is negative, the compound is shown as (−); When positive, the compound is shown as (+); conditions: TA98 and TA100 lines, non-metabolism-activation and metabolism-activation conditions
Protocol: 20 μL of Salmonella enterica subsp. typhimurium (Salmonella typhimurium TA98 line, TA100 line) cryopreserved was inoculated to 10 mL of liquid nutrient medium (2.5% Oxoid nutrient broth No. 2) and then precultured at 37° C. for 10 hours with shaking. Regarding TA98 line, after 9 mL of a bacterial suspension was centrifuged (2000×g, 10 minutes) to remove the culture solution, the bacteria was suspended in 9 mL of Micro F buffer solution (K2HPO4: 3.5 g/L, KH2PO4: 1 g/L, (NH4)2SO4: 1 g/L, tri-sodium citric acid dihydrate: 0.25 g/L, MgSO4.7H2O: 0.1 g/L), and then added to 110 mL of Exposure media (Micro F buffer solution containing biotin: 8 μg/mL, histidine: 0.2 μg/mL, glucose: 8 mg/mL). Regarding TA 100 line, 120 mL of Exposure media was added to 3.16 mL of the bacterial suspension to prepare a test bacterial suspension. 12 μL of a solution of a test substance in DMSO (diluted eight times in a common ratio of 2 from the maximum dose of 50 mg/mL); 12 μL of DMSO as a negative control; 50 μg/mL 4-nitroquinoline-1-oxide solution in DMSO for TA98 line or 0.25 μg/mL 2-(2-furyl)-3-(5-nitro-2-furyl)acrylamide solution in DMSO as a positive control for TA 100 line in the case of a non-metabolism-activation condition; 12 μL of 40 μg/mL 2-aminoanthracene solution in DMSO for TA98 line or 20 μg/mL of 2-aminoanthracene solution in DMSO for TA100 line in the case of a metabolism-activation condition; were each mixed with 588 μL of the test bacterial suspension (in the case of a metabolism activation condition, a mixed solution of 498 μL of the test bacterial suspension and 90 μL S9 mix) and then cultured at 37° C. at 90 minutes with shaking. 460 μL of the bacterial suspension to which a test substance was exposed was mixed with 2300 μL of Indicator media (a Micro F buffer solution containing 8 μg/mL biotin, 0.2 μg/mL histidine, 8 mg/mL glucose, and 37.5 μg/mL bromocresol purple). […] Thus, in 48 wells per dose, the number of the bacteria-proliferation wells in which the color changed to yellow was counted, compared with a group of negative controls, and then evaluated. […]

[2] = Solubility test in artificial intestinal juice pH 6.8; format: physicochemical; conditions: kinetic from dmso stock, artificial intestinal juice pH 6.8, 1% DMSO, 25° C.
Protocol: The solubility of a compound was determined under a condition in which 1% DMSO was added. 10 mmol/L compound solution was prepared using DMSO, and then 6 μL of the compound solution was added to 594 μL of artificial intestinal juice in pH 6.8 (to 250 mL of 0.2 mol/L potassium dihydrogen phosphate reagent solution was added 118 mL of 0.2 mol/L NaOH reagent solution and water to provide a final volume of 1000 mL). After standing at 25° C. for 16 hours, the mixed solution was filtered with suction. The filtrate was diluted twice with methanol/water (1/1), and then a concentration in the filtration was measured with HPLC or LC/MS/MS by the absolute calibration method.

[3] = target: T1, human ether-a-go-go related gene (hERG) channel (Homo sapiens, UniProt Q12809); experiment: hERG test, whole-cell patch-clamp, IKr; format: cell-based; conditions: 1 μmol/L compound; HEK293 cell expressing hERG
T1 construct: expressed in transfected cells; host or cells: HEK293
Source text: For the purpose of risk evaluation of QT interval extension of electrocardiogram, the activity on delayed rectification K^+ current (IKr), which plays an important role in a cardiac ventricle repolarization process, was examined using the HEK293 cell that was made to express human ether-a-go-go related gene (hERG) channel.
Using an automatic patch-clamp system (PatchXpress 7000A, Axon Instruments Inc.), by a whole-cell patch-clamp method, after the cell was maintained at a membrane potential of −80 mV, IKr induced upon applying depolarizing stimulation of +50 mV for 2 seconds and further applying repolarizing stimulation of −50 mV for 2 seconds was recorded. After generated electric current became stable, a test substance dissolved at an intended concentration in extracellular fluid (137 mmol/L NaCl, 4 mmol/L KCl, 1.8 mmol/L CaCl2.2H2O, 1 mmol/L MgCl2.6H2O, 10 mmol/L glucose, 10 mmol/L HEPES (4-(2-hydroxyethyl)-1-piperazineethanesulfonic acid), pH=7.4) was applied to the cell for 10 minutes under room temperature condition. From the obtained IKr, the absolute value of the maximum tail current was measured using analysis software (DataXpress ver. 1, Molecular Devices Corporation) and the value of the electric current in a maintained membrane potential as baseline. Moreover, an inhibition ratio for the maximum tail current prior to the application of the test substance was calculated and then compared with a group of media-application (0.1% dimethylsulfoxide solution) to evaluate influence of the test substance on IKr.

T1 sequence (Q12809 whole entry): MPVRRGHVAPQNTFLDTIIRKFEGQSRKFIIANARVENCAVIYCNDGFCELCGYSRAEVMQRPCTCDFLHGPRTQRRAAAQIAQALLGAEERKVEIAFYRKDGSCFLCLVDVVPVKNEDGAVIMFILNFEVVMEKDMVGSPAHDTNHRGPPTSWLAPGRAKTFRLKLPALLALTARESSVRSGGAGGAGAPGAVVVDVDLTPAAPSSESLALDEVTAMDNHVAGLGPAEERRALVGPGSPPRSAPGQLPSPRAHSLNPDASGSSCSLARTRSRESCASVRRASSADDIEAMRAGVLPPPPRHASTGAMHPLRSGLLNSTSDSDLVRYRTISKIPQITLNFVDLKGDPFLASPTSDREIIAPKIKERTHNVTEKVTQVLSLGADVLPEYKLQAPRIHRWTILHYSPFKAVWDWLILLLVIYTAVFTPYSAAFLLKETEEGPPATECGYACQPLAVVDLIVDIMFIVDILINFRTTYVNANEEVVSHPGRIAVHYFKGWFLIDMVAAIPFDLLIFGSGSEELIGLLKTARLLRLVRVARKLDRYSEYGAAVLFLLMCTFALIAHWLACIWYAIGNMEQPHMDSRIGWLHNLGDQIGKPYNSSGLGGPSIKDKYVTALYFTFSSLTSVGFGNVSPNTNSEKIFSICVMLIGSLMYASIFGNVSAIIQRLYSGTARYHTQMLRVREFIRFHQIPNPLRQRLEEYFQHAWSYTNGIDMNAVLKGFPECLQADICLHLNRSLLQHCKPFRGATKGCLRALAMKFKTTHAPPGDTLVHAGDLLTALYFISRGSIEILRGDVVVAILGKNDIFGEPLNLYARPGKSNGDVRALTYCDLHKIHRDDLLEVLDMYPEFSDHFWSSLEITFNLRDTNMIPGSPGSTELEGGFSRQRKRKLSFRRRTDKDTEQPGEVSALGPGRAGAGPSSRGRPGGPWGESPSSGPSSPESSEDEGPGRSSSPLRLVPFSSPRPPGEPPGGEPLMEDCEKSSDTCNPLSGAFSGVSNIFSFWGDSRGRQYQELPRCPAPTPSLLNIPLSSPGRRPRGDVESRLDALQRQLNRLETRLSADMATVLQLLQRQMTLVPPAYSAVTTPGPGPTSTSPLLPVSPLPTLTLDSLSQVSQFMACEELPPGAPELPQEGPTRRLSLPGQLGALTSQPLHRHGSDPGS
Chain of PI-3 kinase γ (P48736 whole entry): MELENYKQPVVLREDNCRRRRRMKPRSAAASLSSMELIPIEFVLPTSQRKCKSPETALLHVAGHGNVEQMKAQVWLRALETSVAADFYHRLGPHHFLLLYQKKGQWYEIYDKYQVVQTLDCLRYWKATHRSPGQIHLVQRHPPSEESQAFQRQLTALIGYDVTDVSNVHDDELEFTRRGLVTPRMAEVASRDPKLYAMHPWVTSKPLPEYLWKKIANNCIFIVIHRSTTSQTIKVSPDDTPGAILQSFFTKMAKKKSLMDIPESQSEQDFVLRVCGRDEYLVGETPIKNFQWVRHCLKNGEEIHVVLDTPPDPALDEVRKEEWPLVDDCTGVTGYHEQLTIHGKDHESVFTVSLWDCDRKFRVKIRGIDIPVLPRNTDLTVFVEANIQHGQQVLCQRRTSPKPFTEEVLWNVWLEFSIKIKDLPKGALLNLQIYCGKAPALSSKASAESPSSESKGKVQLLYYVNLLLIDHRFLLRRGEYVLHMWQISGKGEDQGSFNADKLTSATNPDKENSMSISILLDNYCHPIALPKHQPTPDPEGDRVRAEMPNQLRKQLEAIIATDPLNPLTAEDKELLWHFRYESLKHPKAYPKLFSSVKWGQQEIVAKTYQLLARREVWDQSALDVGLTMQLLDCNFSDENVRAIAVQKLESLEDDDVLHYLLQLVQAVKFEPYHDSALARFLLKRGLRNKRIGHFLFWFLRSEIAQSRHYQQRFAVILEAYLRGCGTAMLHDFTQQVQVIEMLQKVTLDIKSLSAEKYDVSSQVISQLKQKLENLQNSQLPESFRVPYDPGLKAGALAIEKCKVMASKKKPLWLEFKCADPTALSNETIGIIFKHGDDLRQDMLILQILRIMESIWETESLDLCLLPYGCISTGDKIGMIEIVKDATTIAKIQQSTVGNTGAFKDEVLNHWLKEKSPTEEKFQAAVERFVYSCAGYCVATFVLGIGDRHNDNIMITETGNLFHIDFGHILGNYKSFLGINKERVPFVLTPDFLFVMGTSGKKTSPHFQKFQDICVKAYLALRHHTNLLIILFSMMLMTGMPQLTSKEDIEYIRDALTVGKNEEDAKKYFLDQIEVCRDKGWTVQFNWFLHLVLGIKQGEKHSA

| SMILES | inhibition at 50 µM (PI-3 kinase γ) | mutagenicity [1] | solubility at 16 h [2] | hERG inhibition ratio for the maximum tail current (IKr) [3] |
| --- | --- | --- | --- | --- |
| CC1SC(N2CCOc3cccnc32)=NC1=O (stereo not drawn) [Compound I-1] | 87% | (−) | > 50 µM |  |
| O=C(O)c1cccc(Nc2cnc3c(c2)OCCN3C(=O)Nc2ccccc2)c1 [Compound I-138] |  | (−) | > 50 µM | 11.1% |
